# Article PMC10018336 (Nucleic Acids Research, 2023)
# Changes are numbered by the printed parent chain.
# Tests used:
# Experiment in all cases: microscale thermophoresis, RED-NHS labelled protein
# Format in all cases: binding
# Sso2081 (Crn1) [1] = target: T1, Sso2081 (Crn1) (Saccharolobus solfataricus, UniProt Q7LYJ6, E17A)
# T1 construct: full length aa 1-178; recombinant in E. coli Rosetta (DE3); N-terminal His6 tag cut with PreScission protease; homodimer
# T1 sequence (Q7LYJ6 1-178 E17A): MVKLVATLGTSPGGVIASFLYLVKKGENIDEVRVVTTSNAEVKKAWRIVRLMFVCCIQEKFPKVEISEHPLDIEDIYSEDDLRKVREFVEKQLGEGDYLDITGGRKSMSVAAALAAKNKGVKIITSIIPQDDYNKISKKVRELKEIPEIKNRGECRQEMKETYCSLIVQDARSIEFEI
# Sso2081 (Crn1) [2] = target: T2, Sso2081 (Crn1) (Saccharolobus solfataricus, UniProt Q7LYJ6, K106A)
# T2 construct: full length aa 1-178; recombinant in E. coli Rosetta (DE3); N-terminal His6 tag cut with PreScission protease; homodimer
# T2 sequence (Q7LYJ6 1-178 K106A): T1 sequence (Q7LYJ6 1-178 E17A) with A17E, K106A
# Sso2081 (Crn1) [3] = target: T3, Sso2081 (Crn1) (Saccharolobus solfataricus, UniProt Q7LYJ6, S11A)
# T3 construct: full length aa 1-178; recombinant in E. coli Rosetta (DE3); N-terminal His6 tag cut with PreScission protease; homodimer
# T3 sequence (Q7LYJ6 1-178 S11A): T1 sequence (Q7LYJ6 1-178 E17A) with S11A, A17E
# Sso2081 (Crn1) [4] = target: T4, Sso2081 (Crn1) (Saccharolobus solfataricus, UniProt Q7LYJ6, T10A)
# T4 construct: full length aa 1-178; recombinant in E. coli Rosetta (DE3); N-terminal His6 tag cut with PreScission protease; homodimer
# T4 sequence (Q7LYJ6 1-178 T10A): T1 sequence (Q7LYJ6 1-178 E17A) with T10A, A17E
# Sso2081 (Crn1) [5] = target: T5, Sso2081 (Crn1) (Saccharolobus solfataricus, UniProt Q7LYJ6, D75A)
# T5 construct: full length aa 1-178; recombinant in E. coli Rosetta (DE3); N-terminal His6 tag cut with PreScission protease; homodimer
# T5 sequence (Q7LYJ6 1-178 D75A): T1 sequence (Q7LYJ6 1-178 E17A) with A17E, D75A
compound,measurement,setting,value
Nc1ncnc2c1ncn2[C@@H]1O[C@@H]2COP(=O)(O)O[C@H]3[C@@H](O)[C@H](n4cnc5c(N)ncnc54)O[C@@H]3COP(=O)(O)O[C@H]3[C@@H](O)[C@H](n4cnc5c(N)ncnc54)O[C@@H]3COP(=O)(O)O[C@H]3[C@@H](O)[C@H](n4cnc5c(N)ncnc54)O[C@@H]3COP(=O)(O)O[C@H]2[C@H]1O [cA4],Kd,Sso2081 (Crn1) [1],17 ± 1.2 nM
same,Kd,Sso2081 (Crn1) [2],22.8 ± 10.1 nM
same,Kd,Sso2081 (Crn1) [3],43.2 ± 25.5 nM
same,Kd,Sso2081 (Crn1) [4],17.3 ± 9.2 nM
same,Kd,Sso2081 (Crn1) [5],75.5 ± 34.1 nM
